Measured values taken from publication PMC2731040 (BMC Clinical Pharmacology, 2009).

Columns and labels:
[1] = tested on: nondependent cocaine-experienced subjects; assay: Adverse events and cardiovascular safety monitoring; format: in vivo, human
Description: Heart rate, blood pressure, respiration rate, skin and core temperature were recorded at specific times during the study. During infusions, measures were obtained pre-dose and at 0.17, 0.5, 0.75, 1, 1.5, 2, 2.5, 3, 3.5, 4, 4.25, 4.5, 5, 6, 8, 12, 18, 24, 36, 48, and 72 hours after dosing. The electrocardiogram was monitored continuously during the infusion and for 4 hours after the termination of the intravenous cocaine infusion. EKG tracings were recorded at each data collection point.

[2] = Plasma pharmacokinetics of cocaine and benzoylecgonine after IV cocaine-d5 infusion; settings: plasma, mean ± SD; for half-life / AUC(0-t) / AUC(0-inf) / clearance / Tmax / Vd / Cmax / k el: human, in vivo; for half-life: (t1/2)z; for clearance: CL; for Vd: Vz; for Cmax: iv, cocaine-d5 IV 0.5 mg/kg over 10 min then 2 mg/kg over 4 h; for k el: λz
Description: In this open-label, unblinded study, a 0.5 mg/kg intravenous loading dose of cocaine-d5 HCl over 10 minutes was followed by a slow 4 hour constant rate cocaine-d5 infusion of 2.0 mg/kg(~175 mg for a 70 kg person). […] When this method of cocaine administration is utilized, a larger dose can be given over a longer period of time and approximates frequently reported patterns of cocaine use. This method also allowed for close monitoring and termination of the infusion if untoward psychiatric or cardiovascular effects occurred.
For both cocaine infusions (sessions 1 and 2), plasma samples for cocaine and metabolites (~6 ml) were obtained 5 minutes before and 10 minutes, 0.5, 1, 1.5, 2, 4, 4.25, 4.5, 5, 6, 8, 12, 21, 27, 33, and 45 hours after each cocaine infusion.
Plasma concentrations of cocaine and benzoylecgonine were measured in our laboratory using a method we developed. The method allows for simultaneous determination of cocaine, benzoylecgonine, and deuterium-labeled analogs [cocaine-d5 and benzoylecgonine-d5 (BE-d5)] by using combined gas chromatography-mass spectrometry (GC-MS). Differently labeled stable isotope analogs were used as internal standards. The calibration curves were from 5 to 2,000 ng/mL for cocaine-d5 and 10 to 2,000 ng/mL for BE-d5. Lower limits of quantitation (LLOQ) were 5 ng/ml (cocaine-d5) and 10 ng/ml (BE-d5) in plasma. Qualitative urine benzoylecgonine was measured by Northwest Toxicology Laboratory, Salt Lake City, Utah, using the Roche Diagnostics Online® immunoassay.
The plasma concentration-time profiles for cocaine and benzoylecgonine (BE) were analyzed by non-compartmental methods, utilizing the pharmacokinetic data analysis program WinNonlin Pro, version 3.0 [31].
The area under the plasma concentration-time curve was calculated using the linear trapezoidal rule up to the maximum plasma concentration, and thereafter using the logarithmic trapezoidal rule to the last measurable plasma concentration. The remaining area was extrapolated to infinity by dividing the last appropriate plasma concentration by the terminal exponential rate constant.
Maximum plasma concentration (Cmax) and time of maximum plasma concentration (Tmax) were determined by visual inspection of data. "Terminal" exponential half-life [(t1/2)z] was calculated from log-linear regression of "terminal" exponential phase data points. Cocaine clearance (CL) and terminal exponential volume of distribution (Vz) were calculated by conventional equations: CL = [Dose/Area under the curve (AUC)0-∞] and Vz = CL/λz, respectively, where λz ("terminal" exponential rate constant) = ln2/(t1/2)z. […] Amount of BE in urine samples was calculated by multiplying concentration by volume.

noradrenergic tone = assay: Urinary MHPG-S excretion (surrogate for noradrenergic tone, MAO-A metabolite); format: in vivo, human
Source text: The interactions between MAO-A inhibitors and cocaine administered are largely unexplored. […] Therefore, measurement of dopaminergic and noradrenergic tone may be important in predicting toxic events. We measured dopaminergic tone with the surrogate marker of plasma HVA, the major brain metabolite of dopamine, and serum levels of prolactin, a hormone whose secretion is inhibited by dopamine. The surrogate for noradrenergic tone was urine concentrations of MHPG-S. In order to assess the degree of MAO-A and MAO-B inhibition, we assayed concentrations of a substrate of MAO-B, phenylethylamine (PEA). PEA would be expected to increase with MAO-B inhibition, and concentrations of MHPG-S, which is a metabolite of norepinephrine produced by MAO-A primarily in the brain [20], would be expected to decrease.
When subjects were in the GCRC, all urine was collected and volumes recorded. Following each cocaine infusion, urine was collected in fractions from 0 to 24, 24 to 48, and 48 to 72 hours (timed from the start of the infusion). Samples were then frozen at -70°C until analyzed. […] A qualitative screen for drugs of abuse was obtained every other day for the entire study period.
Concentrations of MHPG-S in urine were determined using LC-MS/MS [29]. […] As urinary creatinine excretion is directly related to glomerular filtration and renal blood flow, and urinary creatinine excretion is relatively constant (~1 gm/day), it can be used to estimate concentrations of a substance during a 24 hour urine collection period. Using ratios of the concentrations of MHPG-S to creatinine obtained from assays of these spot urine samples, MGPG-S concentrations during the outpatient period (when subjects would be unlikely to provide accurate 24 hour urine collections) were compared to those from urine samples on inpatient days.

What does the source list for `COC(=O)[C@H]1[C@@H](OC(=O)c2ccccc2)C[C@@H]2CC[C@H]1N2C` [Cocaine, cocaine]?
Adverse events ([1]; STS 6 mg/24 hours, cocaine-d5 IV 2.5 mg/kg over 4 hours): One subject vomited; Adverse effects of cocaine following selegiline administration ([1]; cocaine infusion after one week of STS): No significant adverse effects; AUCext ([2]; Pre Selegiline (session 1)): 1.40 ± 1.03%; AUCext ([2]; With Selegiline (session 2)): 1.78 ± 1.87%; half-life ([2]; Pre Selegiline (session 1)): 1.71 ± 0.81 h; half-life ([2]; With Selegiline (session 2)): 1.57 ± 0.3 h; AUC(0-t) ([2]; Pre Selegiline (session 1)): 2640 ± 55.6 ng·h/mL; AUC(0-t) ([2]; With Selegiline (session 2)): 2360 ± 499 ng·h/mL; AUC(0-inf) ([2]; Pre Selegiline (session 1)): 2680 ± 1470 ng·h/mL; AUC(0-inf) ([2]; With Selegiline (session 2)): 2400 ± 487 ng·h/mL; clearance ([2]; Pre Selegiline (session 1)): 18.3 ± 6.17 mL/min/kg; clearance ([2]; With Selegiline (session 2)): 18 ± 3.34 mL/min/kg; Tmax ([2]; Pre Selegiline (session 1)): 2.66 ± 1.74 h; Tmax ([2]; With Selegiline (session 2)): 2.27 ± 2.04 h; Vd ([2]; Pre Selegiline (session 1)): 2.49 ± 0.88 L/kg; Vd ([2]; With Selegiline (session 2)): 2.44 ± 0.64 L/kg; Cmax ([2]; Pre Selegiline (session 1)): 721 ± 773 ng/mL; Cmax ([2]; With Selegiline (session 2, after one week STS 6 mg/24 hours)): 640 ± 332 ng/mL; k el ([2]; Pre Selegiline (session 1)): 0.000126 s⁻¹; k el ([2]; With Selegiline (session 2)): 0.000127 s⁻¹; Total Amount of MHPG-S Excreted in the 24 Hour Urine Collection (noradrenergic tone; Day 3–4 After Cocaine Preselegiline): 1.44 ± 0.43 mg; Urine MHPG-S/creatinine concentration ratios vs the day before cocaine challenge (noradrenergic tone; second day after the first cocaine challenge, p < 0.05): increased significantly
